The test system of this assay is B6C3F1 mice, B16 melanoma ip, median survival T/C. As to the kind of experiment: NCI In Vivo Anticancer Drug Screen. Data for tumor model B16 Melanoma (intraperitoneal) in B6C3F1 mice. The settings on record: endpoint: median survival time, higher = longer survival. An outline of the steps:
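Transplantable tumor in mice; treated vs vehicle control groups; survival or tumor size measured; value = T/C ratio.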

The mark [1] stands for this setting: dose: 25.0 mg/kg/injection, schedule: Q01DX009 (ip), vehicle: saline.
[2] abbreviates: dose: 50.0 mg/kg/injection, schedule: Q01DX009 (ip), vehicle: saline.
Setting [3] is: dose: 64.0 mg/kg/injection, schedule: Q01DX009 (ip), vehicle: saline.
The mark [4] stands for this setting: dose: 100.0 mg/kg/injection, schedule: Q01DX009 (ip), vehicle: saline.
The mark [5] stands for this setting: dose: 100.0 mg/kg/injection, schedule: Q01DX009 (ip), vehicle: Klucel (hydroxypropylcellulose) (HPC).
Where [6] appears, read: dose: 200.0 mg/kg/injection, schedule: Q01DX009 (ip), vehicle: Klucel (hydroxypropylcellulose) (HPC).
[7] abbreviates: dose: 200.0 mg/kg/injection, schedule: Q01DX009 (ip), vehicle: saline.
[8] abbreviates: dose: 400.0 mg/kg/injection, schedule: Q01DX009 (ip), vehicle: saline.

Each structure is given as a SMILES string. “And” between values parts separate entries of the source, which are not always exact repeats. Equal values may be shown once. Toxic doses and inconclusive results are not listed.

On to `CC[C@]1(O)C[C@H](OC2CC(N(C)C)C(OC3CC(O)C(O)C(C)O3)C(C)O2)c2c(cc3c(c2O)C(=O)c2c(O)ccc(O)c2C3=O)[C@H]1C(=O)OC` (stereo partly drawn), for which the T/C reads like this: (dose: 0.12 mg/kg/injection, schedule: Q01DX009 (ip), vehicle: Klucel (hydroxypropylcellulose) (HPC)) 106 % of control; (dose: 0.25 mg/kg/injection, schedule: Q01DX009 (ip), vehicle: Klucel (hydroxypropylcellulose) (HPC)) 115 % of control; (dose: 1.0 mg/kg/injection, schedule: Q01DX009 (ip), vehicle: Klucel (hydroxypropylcellulose) (HPC)) 177 % of control; (dose: 2.0 mg/kg/injection, schedule: Q01DX009 (ip), vehicle: Klucel (hydroxypropylcellulose) (HPC)) 191 % of control.

As to `COc1cccc2c1C(=O)c1c(O)c3c(c(O)c1C2=O)C[C@@](O)(C(C)=O)C[C@@H]3OC1CC(NC(=O)C(N)CC(C)C)C(O)C(C)O1` (stereo partly drawn), the T/C by setting is: (dose: 6.25 mg/kg/injection, schedule: Q01DX001 (ip), vehicle: saline) 179 % of control; (dose: 12.5 mg/kg/injection, schedule: Q01DX001 (ip), vehicle: saline) 204 % of control.

Consider `NNC(=O)c1ccncc1`, for which the T/C runs as follows: (dose: 6.25 mg/kg/injection, schedule: Q01DX009 (ip), vehicle: saline) 112 % of control; (dose: 12.5 mg/kg/injection, schedule: Q01DX009 (ip), vehicle: saline) 99 % of control; under setting [1], 99 % of control; under setting [2], 105 % of control; under setting [3], 100 % of control; under setting [4], 112 % of control. Under “dose: 128.0 mg/kg/injection, schedule: Q01DX009 (ip), vehicle: saline”, the T/C is 99 % of control.

On to `O=S(=O)(SC(S(=O)(=O)c1ccccc1)S(=O)(=O)c1ccccc1)c1ccccc1`, for which the T/C runs as follows: (dose: 12.5 mg/kg/injection, schedule: Q01DX009 (ip), vehicle: Klucel (hydroxypropylcellulose) (HPC)) 109 % of control; (dose: 25.0 mg/kg/injection, schedule: Q01DX009 (ip), vehicle: Klucel (hydroxypropylcellulose) (HPC)) 115 % of control; (dose: 50.0 mg/kg/injection, schedule: Q01DX009 (ip), vehicle: Klucel (hydroxypropylcellulose) (HPC)) 114 % of control; under setting [5], 107 % of control; under setting [6], 106 % of control; (dose: 400.0 mg/kg/injection, schedule: Q01DX009 (ip), vehicle: Klucel (hydroxypropylcellulose) (HPC)) 98 % of control.

With `CN(C)/N=N/c1[nH]cnc1C(N)=O.[Cl][Cu][Cl]`, the T/C was 106 % of control (dose: 0.5 mg/kg/injection, schedule: Q01DX009 (ip), vehicle: water); 106 % of control (dose: 1.0 mg/kg/injection, schedule: Q01DX009 (ip), vehicle: water); 115 % of control (dose: 2.0 mg/kg/injection, schedule: Q01DX009 (ip), vehicle: water); 109 % of control (dose: 4.0 mg/kg/injection, schedule: Q01DX009 (ip), vehicle: water); 109 % of control (dose: 8.0 mg/kg/injection, schedule: Q01DX009 (ip), vehicle: water).

Regarding `O=C1OCC2(C(=O)O)C(=O)OCC12` (stereo not drawn), the T/C by setting is: (dose: 12.5 mg/kg/injection, schedule: Q01DX009 (ip), vehicle: saline with Tween-80) 105 % of control; (dose: 25.0 mg/kg/injection, schedule: Q01DX009 (ip), vehicle: saline with Tween-80) 100 % of control; (dose: 50.0 mg/kg/injection, schedule: Q01DX009 (ip), vehicle: saline with Tween-80) 101 % of control; (dose: 100.0 mg/kg/injection, schedule: Q01DX009 (ip), vehicle: saline with Tween-80) 104 % of control; (dose: 200.0 mg/kg/injection, schedule: Q01DX009 (ip), vehicle: saline with Tween-80) 90 % of control.

As for `CC(NC(=O)OCc1ccccc1)C(=O)NC(C(=O)O)C(C)O` (stereo not drawn), the T/C is, setting by setting: under setting [5], 98 % of control; under setting [6], 106 % of control.

`CO[C@H]1C[C@H](O[C@H]2CC[C@@]3(C)[C@H](CC[C@@H]4[C@@H]3CC[C@]3(C)[C@@H](C5=CC(=O)OC5)CC[C@]43O)C2)O[C@H](C)[C@H]1O`: the T/C (dose: 1.9 mg/kg/injection, schedule: Q01DX009 (ip), vehicle: Klucel (hydroxypropylcellulose) (HPC)) is 88 % of control; the T/C (dose: 2.8 mg/kg/injection, schedule: Q01DX009 (ip), vehicle: Klucel (hydroxypropylcellulose) (HPC)) is 100 % of control; the T/C (dose: 4.3 mg/kg/injection, schedule: Q01DX009 (ip), vehicle: Klucel (hydroxypropylcellulose) (HPC)) was 102 % of control; the T/C (dose: 6.4 mg/kg/injection, schedule: Q01DX009 (ip), vehicle: Klucel (hydroxypropylcellulose) (HPC)) is 94 % of control.

On to `COc1ccc(CC(N)c2ccccc2)cc1` (stereo not drawn), for which the T/C is 99 % of control under setting [2] and 96 % of control under setting [4].

As for `CCCC(NC(=O)CN)C(=O)O` (stereo not drawn), the T/C is, setting by setting: under setting [1], 108 % of control; under setting [2], 100 % of control; under setting [4], 99 % of control; under setting [7], 94 % of control; under setting [8], 108 % of control.

Take `C1CN1P1(N2CC2)=NP(N2CC2)(N2CC2)=NP(N2CC2)(N2CC2)=NP(N2CC2)(N2CC2)=N1`: the T/C is, setting by setting: (dose: 1.0 mg/kg/injection, schedule: Q01DX009 (ip), vehicle: saline) 95 % of control and 98 % of control; (dose: 1.0 mg/kg/injection, schedule: Q02DX009 (ip), vehicle: saline) 91 % of control and 97 % of control; (dose: 2.0 mg/kg/injection, schedule: Q01DX009 (ip), vehicle: saline) 92 % of control and 96 % of control; (dose: 2.0 mg/kg/injection, schedule: Q02DX009 (ip), vehicle: saline) 91 % of control and 97 % of control; (dose: 4.0 mg/kg/injection, schedule: Q01DX009 (ip), vehicle: saline) 109 % of control and 95 % of control; (dose: 4.0 mg/kg/injection, schedule: Q02DX009 (ip), vehicle: saline) 91 % of control and 98 % of control. For the same molecule, the T/C reads like this: (dose: 8.0 mg/kg/injection, schedule: Q01DX009 (ip), vehicle: saline) 89 % of control and 107 % of control; (dose: 8.0 mg/kg/injection, schedule: Q02DX009 (ip), vehicle: saline) 90 % of control and 97 % of control; (dose: 16.0 mg/kg/injection, schedule: Q01DX009 (ip), vehicle: saline) 91 % of control and 100 % of control; (dose: 16.0 mg/kg/injection, schedule: Q02DX009 (ip), vehicle: saline) 112 % of control; (dose: 32.0 mg/kg/injection, schedule: Q01DX009 (ip), vehicle: saline) 109 % of control and 91 % of control; (dose: 32.0 mg/kg/injection, schedule: Q02DX009 (ip), vehicle: saline) 88 % of control and 103 % of control. Also, the T/C runs as follows: under setting [3], 109 % of control and 90 % of control; (dose: 64.0 mg/kg/injection, schedule: Q02DX009 (ip), vehicle: saline) 94 % of control and 100 % of control.

For `COc1cc2c(cc1O)C1C(O)C(O)C=C3CCN(C2)C31` (stereo not drawn), the T/C (dose: 4.0 mg/kg/injection, schedule: Q01DX009 (ip), vehicle: saline + alcohol) was 114 % of control; the T/C (dose: 8.0 mg/kg/injection, schedule: Q01DX009 (ip), vehicle: saline + alcohol) was 100 % of control; the T/C (dose: 16.0 mg/kg/injection, schedule: Q01DX009 (ip), vehicle: saline + alcohol) is 105 % of control; the T/C (dose: 32.0 mg/kg/injection, schedule: Q01DX009 (ip), vehicle: saline + alcohol) was 102 % of control.

For the molecule `CCN(CC)C(=S)S`, the T/C runs as follows: under setting [2], 92 % of control; (dose: 50.0 mg/kg/injection, schedule: Q01DX009 (ip), vehicle: sodium bicarbonate) 105 % of control; under setting [4], 96 % of control; (dose: 100.0 mg/kg/injection, schedule: Q01DX009 (ip), vehicle: sodium bicarbonate) 92 % of control; under setting [7], 102 % of control; (dose: 200.0 mg/kg/injection, schedule: Q01DX009 (ip), vehicle: sodium bicarbonate) 105 % of control. Moreover, the T/C is, setting by setting: under setting [8], 94 % of control; (dose: 400.0 mg/kg/injection, schedule: Q01DX009 (ip), vehicle: sodium bicarbonate) 105 % of control; (dose: 800.0 mg/kg/injection, schedule: Q01DX009 (ip), vehicle: saline) 95 % of control; (dose: 800.0 mg/kg/injection, schedule: Q01DX009 (ip), vehicle: sodium bicarbonate) 95 % of control.

With `COc1cc([NH-])c([NH-])cc1OC.[Cl][Pt+2][Cl]`, the T/C was 100 % of control (dose: 20.0 mg/kg/injection, schedule: Q01DX009 (ip), vehicle: saline with Tween-80); 101 % of control (dose: 40.0 mg/kg/injection, schedule: Q01DX009 (ip), vehicle: saline with Tween-80); 112 % of control (dose: 80.0 mg/kg/injection, schedule: Q01DX009 (ip), vehicle: saline with Tween-80).

These data come from PubChem BioAssay AID200 (DTP/NCI, 2004).
